Measurements taken from patent publication US20230045421A1 (priority 2018, published 2023).
Read-outs that look alike come from different tables or passages of the source.

Tested on: HBV rcDNA
Test: HepDE19 assay with bDNA quantitation of HBV rcDNA
Type: cell-based, hepatitis B virus
Protocol: HepDE19 Assay with bDNA Quantitation of HBV rcDNA:
HepDE19 cell culture system is a HepG2 (human hepatocarcinoma) derived cell line that supports HBV DNA replication and cccDNA formation in a tetracycline (Tet)-regulated manner and produces HBV rcDNA and a detectable reporter molecule dependent on the production and maintenance of cccDNA (Guo, et al., 2007, J. Virol. 81:12472-12484).
HepDE19 (50,000 cells/well) were plated in 96-well collagen-coated tissue-culture treated microtiter plates in DMEM/F12 medium supplemented with 10% fetal bovine serum, 1% penicillin-streptomycin and 1 μg/mL tetracycline and incubated in a humidified incubator at 37° C. and 5% CO2 overnight. Next day, the cells were switched to fresh medium without tetracycline and incubated for 4 hours at 37° C. and 5% CO2. The cells were treated with fresh Tet-free medium with compounds at concentrations starting at 25 μM and a serial, […], 8-point, titration series in duplicate. The final DMSO concentration in the assay was 0.5%. The plates were incubated for 7 days in a humidified incubator at 37° C. and 5% CO2. Following a 7 day-incubation, the level of rcDNA present in the inhibitor-treated wells was measured using a Quantigene 2.0 bDNA assay kit (Affymetrix, Santa Clara, Calif.) with HBV specific custom probe set and manufacturers instructions. Concurrently, the effect of compounds on cell viability was assessed using replicate plates, plated at a density of 5,000 cells/well and incubated for 4 days, to determine the ATP content as a measure of cell viability using the cell-titer glo reagent (CTG; Promega Corporation, Madison, Wis.) as per manufacturer's instructions. The plates were read using a Victor luminescence plate reader (PerkinElmer Model 1420 Multilabel counter) and the relative luminescence units (RLU) data generated from each well was calculated as % inhibition of the untreated control wells and analyzed using XL-Fit module in Microsoft Excel to determine EC50 and EC90 (bDNA) and CC50 (CTG) values using a 4-parameter curve fitting algorithm.

[1] = HepDE19 assay, inhibition of formation of rcDNA, read-out: DE-19bDNA EC50
[2] = read-out: DE-19bDNA EC50, HepDE19 assay, inhibition of formation of rcDNA
[3] = Hepatitis B virus, HepDE19, read-out: DE-19bDNA EC50 (μM), HepDE19 assay, inhibition of formation of rcDNA

Compound	EC50 [1] [µM]	further results
CCCCN(C(=O)Nc1ccc(F)c(Cl)c1)C(C)c1cnc(OC)c2ccccc12 (single isomer, unassigned) [Compound 62, 1-Butyl-3-(3-chloro-4-fluorophenyl)-1-(1-(1-methoxyisoquinolin-4-yl)ethyl)urea]	7.1	
COc1ncc(C(C)N(CC2CC2)C(=O)Nc2ccc(F)c(Cl)c2)c2ccccc12 (single isomer, unassigned) [Compound 63, 3-(3-Chloro-4-fluorophenyl)-1-(cyclopropylmethyl)-1-(1-(1-methoxyisoquinolin-4-yl)ethyl)urea]	5.8	
COc1ncc(C(C)N(CC2CC2)C(=O)Nc2ccc(F)c(Cl)c2)c2ccccc12 (single isomer, unassigned) [Compound 64, 3-(3-Chloro-4-fluorophenyl)-1-(cyclopropylmethyl)-1-(1-(1-methoxyisoquinolin-4-yl)ethyl)urea]	0.12	
COCCN(C(=O)Nc1ccc(F)c(Cl)c1)C(C)c1c[nH]c(=O)c2ccccc12 (single isomer, unassigned) [Compound 65, 3-(3-Chloro-4-fluorophenyl)-1-(2-methoxyethyl)-1-(1-(1-oxo-1,2-dihydroisoquinolin-4-yl)ethyl)urea]		EC50 [2]: 10 µM
COCCN(C(=O)Nc1ccc(F)c(Cl)c1)C(C)c1c[nH]c(=O)c2ccccc12 (single isomer, unassigned) [Compound 66, 3-(3-Chloro-4-fluorophenyl)-1-(2-methoxyethyl)-1-(1-(1-oxo-1,2-dihydroisoquinolin-4-yl)ethyl)urea]		EC50 [2]: 0.09 µM
CC(c1c[nH]c(=O)c2ccccc12)N(C(=O)Nc1ccc(F)c(Cl)c1)C1CC1 (single isomer, unassigned) [Compound 67, 3-(3-Chloro-4-fluorophenyl)-1-cyclopropyl-1-(1-(1-oxo-1,2-dihydroisoquinolin-4-yl)ethyl)urea]	7.9	
CC(c1c[nH]c(=O)c2ccccc12)N(C(=O)Nc1ccc(F)c(Cl)c1)C1CC1 (single isomer, unassigned) [Compound 68, 3-(3-Chloro-4-fluorophenyl)-1-cyclopropyl-1-(1-(1-oxo-1,2-dihydroisoquinolin-4-yl)ethyl)urea]	0.06	
CCN(C(=O)Nc1ccc(F)c(Cl)c1)C(c1ccccc1)c1c[nH]c(=O)c2ccccc12 (single isomer, unassigned) [Compound 69, 3-(3-Chloro-4-fluorophenyl)-1-ethyl-1-((1-oxo-1,2-dihydroisoquinolin-4-yl)(phenyl)methyl)urea]		EC50 [3]: 9.7 µM
CCN(C(=O)Nc1ccc(F)c(Cl)c1)C(c1ccccc1)c1c[nH]c(=O)c2ccccc12 (single isomer, unassigned) [Compound 70, 3-(3-Chloro-4-fluorophenyl)-1-ethyl-1-((1-oxo-1,2-dihydroisoquinolin-4-yl)(phenyl)methyl)urea]		EC50 [2]: 16 µM
COCCN(C(=O)Nc1ccc(F)c(Cl)c1)C(C)c1cnc(OC)c2ccccc12 (single isomer, unassigned) [Compound 72, 3-(3-Chloro-4-fluorophenyl)-1-(2-methoxyethyl)-1-(1-(1-methoxyisoquinolin-4-yl)ethyl)urea]	21	
COCCN(C(=O)Nc1ccc(F)c(Cl)c1)C(C)c1cnc(OC)c2ccccc12 (single isomer, unassigned) [Compound 73, 3-(3-Chloro-4-fluorophenyl)-1-(2-methoxyethyl)-1-(1-(1-methoxyisoquinolin-4-yl)ethyl)urea]	0.78	
CCN(C(=O)Nc1ccc(F)c(Cl)c1)C(c1c[nH]c(=O)c2ccccc12)C(F)(F)F (single isomer, unassigned) [Compound 74, 3-(3-chloro-4-fluorophenyl)-1-ethyl-1-(2,2,2-trifluoro-1-(1-oxo-1,2-dihydroisoquinolin-4-yl)ethyl)urea]	15	
CCN(C(=O)Nc1ccc(F)c(Cl)c1)C(c1cnc(OC)c2ccccc12)C(F)(F)F (single isomer, unassigned) [Compound 75, 3-(3-Chloro-4-fluorophenyl)-1-ethyl-1-(2,2,2-trifluoro-1-(1-methoxyisoquinolin-4-yl)ethyl)urea]		EC50 (Hepatitis B virus, HepDE19, HepDE19 assay, inhibition of formation of rcDNA, read-out: DE-19bDNA EC50): 4.5 µM
CCN(C(=O)Nc1ccc(F)c(Cl)c1)C(c1c[nH]c(=O)c2ccccc12)C(F)(F)F (single isomer, unassigned) [Compound 76, 3-(3-Chloro-4-fluorophenyl)-1-ethyl-1-(2,2,2-trifluoro-1-(1-oxo-1,2-dihydroisoquinolin-4-yl)ethyl)urea]	1.4	
COc1ncc(C(CCO)NC(=O)Nc2ccc(F)c(Cl)c2)c2ccccc12 (single isomer, unassigned) [Compound 77, 1-(3-Chloro-4-fluorophenyl)-3-(3-hydroxy-1-(1-methoxyisoquinolin-4-yl)propyl)urea]	7.4	
COc1ncc(C(CCO)NC(=O)Nc2ccc(F)c(Cl)c2)c2ccccc12 (single isomer, unassigned) [Compound 78, 1-(3-Chloro-4-fluorophenyl)-3-(3-hydroxy-1-(1-methoxyisoquinolin-4-yl)propyl)urea]	24	
COCCCN(C(=O)Nc1ccc(F)c(Cl)c1)C(C)c1cnc(OC)c2ccccc12 (single isomer, unassigned) [Compound 81, 3-(3-Chloro-4-fluorophenyl)-1-(1-(1-methoxyisoquinolin-4-yl)ethyl)-1-(3-methoxypropyl)urea]	8.6	
COCCCN(C(=O)Nc1ccc(F)c(Cl)c1)C(C)c1cnc(OC)c2ccccc12 (single isomer, unassigned) [Compound 82, 3-(3-Chloro-4-fluorophenyl)-1-(1-(1-methoxyisoquinolin-4-yl)ethyl)-1-(3-methoxypropyl)urea]	0.32	
CCCCN(C(=O)Nc1ccc(F)c(Cl)c1)C(C)c1c[nH]c(=O)c2ccccc12 (single isomer, unassigned) [Compound 83, 1-Butyl-3-(3-chloro-4-fluorophenyl)-1-(1-(1-oxo-1,2-dihydroisoquinolin-4-yl)ethyl)urea]		EC50 [2]: 0.86 µM
CCCCN(C(=O)Nc1ccc(F)c(Cl)c1)C(C)c1c[nH]c(=O)c2ccccc12 (single isomer, unassigned) [Compound 84, 1-Butyl-3-(3-chloro-4-fluorophenyl)-1-(1-(1-oxo-1,2-dihydroisoquinolin-4-yl)ethyl)urea]		EC50 [2]: 0.01 µM
CC(c1c[nH]c(=O)c2ccccc12)N(CC1CC1)C(=O)Nc1ccc(F)c(Cl)c1 (single isomer, unassigned) [Compound 85, 3-(3-Chloro-4-fluorophenyl)-1-(cyclopropylmethyl)-1-(1-(1-oxo-1,2-dihydroisoquinolin-4-yl)ethyl)urea]	0.46	
CC(c1c[nH]c(=O)c2ccccc12)N(CC1CC1)C(=O)Nc1ccc(F)c(Cl)c1 (single isomer, unassigned) [Compound 86, 3-(3-Chloro-4-fluorophenyl)-1-(cyclopropylmethyl)-1-(1-(1-oxo-1,2-dihydroisoquinolin-4-yl)ethyl)urea]	0.02	
C[C@H](c1c[nH]c(=O)c2ccccc12)N(C)C(=O)Nc1ccnc(C(F)(F)F)c1 (single isomer, unassigned) [Compound 95]		EC50 [3]: 1.1 µM
CC(c1c[nH]c(=O)c2ccccc12)N(CCC(=O)N(C)C)C(=O)Nc1ccc(F)c(Cl)c1 (single isomer, unassigned) [Compound 105, 3-(3-(3-Chloro-4-fluorophenyl)-1-(1-(1-oxo-1,2-dihydroisoquinolin-4-yl)ethyl)ureido)-N,N-dimethylpropanamide]	3.4	
CC(c1c[nH]c(=O)c2ccccc12)N(CCC(=O)N(C)C)C(=O)Nc1ccc(F)c(Cl)c1 (single isomer, unassigned) [Compound 106, 3-(3-(3-Chloro-4-fluorophenyl)-1-(1-(1-oxo-1,2-dihydroisoquinolin-4-yl)ethyl)ureido)-N,N-dimethylpropanamide]	0.08	
CC(c1c[nH]c(=O)c2ccccc12)N(CCS(C)(=O)=O)C(=O)Nc1ccc(F)c(Cl)c1 (single isomer, unassigned) [Compound 107, 3-(3-Chloro-4-fluorophenyl)-1-(2-(methylsulfonyl)ethyl)-1-(1-(1-oxo-1,2-dihydroisoquinolin-4-yl)ethyl)urea]	17	
CC(c1c[nH]c(=O)c2ccccc12)N(CCS(C)(=O)=O)C(=O)Nc1ccc(F)c(Cl)c1 (single isomer, unassigned) [Compound 108, 3-(3-Chloro-4-fluorophenyl)-1-(2-(methylsulfonyl)ethyl)-1-(1-(1-oxo-1,2-dihydroisoquinolin-4-yl)ethyl)urea]	0.05	
